Test results taken from ChEMBL document CHEMBL5352399, “(1R,3S)-THCCA-Asn: To show the discovery of selective inhibitor of thrombin by successfully combining virtual screening and biological assay” (Eur J Med Chem, 2022).
Each block holds one compound with its values, some of them ahead of it. Activity calls are given as the source filed them. The calls are words filed in the database; no cut-off is given here.

Experiments:
Platelet [1] = experiment: Anti-platelet aggregation activity in Sprague-Dawley rat platelet rich plasma assessed as inhibition of AA-induced aggregation preincubated with compound followed by AA addition measured after 5 mins by two channel chronology aggregometry; format: functional, cell-based
Platelet [2] = experiment: Anti-platelet aggregation activity in Sprague-Dawley rat platelet rich plasma assessed as inhibition of ADP-induced aggregation preincubated with compound followed by ADP addition measured after 5 mins by two channel chronology aggregometry; format: functional, cell-based
Rattus norvegicus [3] = experiment: Antithrombotic activity in Wistar rat model assessed as thrombus weight at 1 nmol/kg, po by polyethylene tube based method; format: functional
[4] = Anti-platelet aggregation activity in Sprague-Dawley rat platelet rich plasma assessed as inhibition of TH-induced aggregation preincubated with compound followed by TH addition measured after 5 mins by two channel chronology aggregometry; format: functional, cell-based
Platelet [5] = experiment: Anti-platelet aggregation activity in Sprague-Dawley rat platelet rich plasma assessed as inhibition of PAF-induced aggregation preincubated with compound followed by PAF addition measured after 5 mins by two channel chronology aggregometry; format: functional, cell-based
Rattus norvegicus [6] = experiment: Antithrombotic activity in Wistar rat model assessed as thrombus weight at 10 nmol/kg, po by polyethylene tube based method; format: functional
[7] = Toxicity in rat thrombosis model assessed as change in tail bleeding time at 0.001 nmol/kg, po by tail bleeding time assay; format: organism-based; conditions: in vivo
[8] = Toxicity in rat thrombosis model assessed as bleeding in inferior cavity at 0.001 to 1 nmol/kg, po; conditions: in vivo, dose 0.001-1 nmol/kg
[9] = Toxicity in rat thrombosis model assessed as bleeding in brain at 0.001 to 1 nmol/kg, po; format: tissue-based; conditions: in vivo, dose 0.001-1 nmol/kg
[10] = Toxicity in rat thrombosis model assessed as bleeding in thoracic cavity at 0.001 to 1 nmol/kg, po; conditions: in vivo, dose 0.001-1 nmol/kg
Rattus norvegicus [11] = experiment: Anti-arterial thrombosis activity in po dosed male Wister rat thrombogenesis model assessed as thrombus weight by polyethylene tube based method; format: functional, organism-based; conditions: dose 0.001-1 nmol/kg
[12] = Cytotoxicity activity against human NCM460 cells assessed as cell growth inhibition incubated for 48 hrs by CCK-8 assay; format: toxicity, cell-based
[13] = Toxicity in rat thrombosis model assessed as change in tail bleeding time at 1 nmol/kg, po by tail bleeding time assay; format: organism-based; conditions: in vivo
[14] = Cytotoxicity activity against human L02 cells assessed as cell growth inhibition incubated for 48 hrs by CCK-8 assay; format: toxicity, cell-based
[15] = Cytotoxicity activity against human NHDF cells assessed as cell growth inhibition incubated for 48 hrs by CCK-8 assay; format: toxicity, cell-based
[16] = Toxicity in rat thrombosis model assessed as change in tail bleeding time at 0.01 nmol/kg, po by tail bleeding time assay; format: organism-based; conditions: in vivo

Compound: COC(=O)c1cc([C@H]2N[C@H](C(=O)N[C@@H](Cc3ccccc3)C(=O)O)Cc3c2[nH]c2ccccc32)ccc1O
inhibition (Platelet [1]): inactive | inhibition (Platelet [2]): inactive | Activity (Rattus norvegicus [3]): 23.69 mg | IC50 [4]: 1750 nM | inhibition (Platelet [5]): inactive

Compound: COC(=O)c1cc([C@H]2N[C@H](C(=O)N[C@@H](CCC(N)=O)C(=O)O)Cc3c2[nH]c2ccccc32)ccc1O
inhibition (Platelet [1]): inactive | inhibition (Platelet [2]): inactive | Activity (Rattus norvegicus [3]): 21.66 mg | IC50 [4]: 230 nM | inhibition (Platelet [5]): inactive

Compound: COC(=O)c1cc([C@H]2N[C@H](C(=O)N[C@H](C(=O)O)C(C)C)Cc3c2[nH]c2ccccc32)ccc1O
inhibition (Platelet [1]): inactive | inhibition (Platelet [2]): inactive | Activity (Rattus norvegicus [3]): 23.69 mg | IC50 [4]: 230 nM | inhibition (Platelet [5]): inactive

Compound: COC(=O)c1cc([C@H]2N[C@H](C(=O)N[C@@H](Cc3ccc(O)cc3)C(=O)O)Cc3c2[nH]c2ccccc32)ccc1O
inhibition (Platelet [1]): inactive | inhibition (Platelet [2]): inactive | Activity (Rattus norvegicus [3]): 19.19 mg | IC50 [4]: 70 nM | inhibition (Platelet [5]): inactive

Compound: CC[C@H](C)[C@H](NC(=O)[C@@H]1Cc2c([nH]c3ccccc23)[C@@H](c2ccc(O)c(C(=O)OC)c2)N1)C(=O)O
inhibition (Platelet [1]): inactive | inhibition (Platelet [2]): inactive | Activity (Rattus norvegicus [3]): 21.66 mg | IC50 [4]: 230 nM | inhibition (Platelet [5]): inactive

Compound: COC(=O)c1cc([C@H]2N[C@H](C(=O)O)Cc3c2[nH]c2ccccc32)ccc1O
Activity (Rattus norvegicus [6]): 23.17 mg

Compound: COC(=O)c1cc([C@H]2N[C@H](C(=O)N[C@H](C(=O)O)[C@@H](C)O)Cc3c2[nH]c2ccccc32)ccc1O
inhibition (Platelet [1]): inactive | inhibition (Platelet [2]): inactive | Activity (Rattus norvegicus [3]): 23.69 mg | IC50 [4]: 1750 nM | inhibition (Platelet [5]): inactive

Compound: COC(=O)c1cc([C@H]2N[C@H](C(=O)N[C@@H](CC(N)=O)C(=O)O)Cc3c2[nH]c2ccccc32)ccc1O
Activity [7]: Non-Toxic | inhibition (Platelet [1]): inactive | inhibition (Platelet [2]): inactive | Activity (Rattus norvegicus [3]): 19.19 mg | Activity [8]: Non-Toxic | Activity [9]: Non-Toxic | Activity [10]: Non-Toxic | Activity (Rattus norvegicus [11]): Dose-Dependent Effect | IC50 at 48 h [12]: > 125000 nM | Activity [13]: Non-Toxic | IC50 at 48 h [14]: > 125000 nM | IC50 at 48 h [15]: > 125000 nM | IC50 [4]: 70 nM | inhibition (Platelet [5]): inactive | Activity [16]: Non-Toxic

Compound: COC(=O)c1cc([C@H]2N[C@H](C(=O)N[C@@H](Cc3c[nH]c4ccccc34)C(=O)O)Cc3c2[nH]c2ccccc32)ccc1O
inhibition (Platelet [1]): inactive | inhibition (Platelet [2]): inactive | Activity (Rattus norvegicus [3]): 21.66 mg | IC50 [4]: 230 nM | inhibition (Platelet [5]): inactive

Second part, led by results:

IC50 [4]: 230 nM
Compound: COC(=O)c1cc([C@H]2N[C@H](C(=O)N[C@@H](CCCNC(=N)N)C(=O)O)Cc3c2[nH]c2ccccc32)ccc1O
inhibition (Platelet [1]): inactive | inhibition (Platelet [2]): inactive | Activity (Rattus norvegicus [3]): 21.66 mg | inhibition (Platelet [5]): inactive

IC50 [4]: 1750 nM
Compound: COC(=O)c1cc([C@H]2N[C@H](C(=O)NCC(=O)O)Cc3c2[nH]c2ccccc32)ccc1O
inhibition (Platelet [1]): inactive | inhibition (Platelet [2]): inactive | Activity (Rattus norvegicus [3]): 23.69 mg | inhibition (Platelet [5]): inactive

IC50 [4]: 230 nM
Compound: COC(=O)c1cc([C@H]2N[C@H](C(=O)N[C@@H](C)C(=O)O)Cc3c2[nH]c2ccccc32)ccc1O
inhibition (Platelet [1]): inactive | inhibition (Platelet [2]): inactive | Activity (Rattus norvegicus [3]): 21.66 mg | inhibition (Platelet [5]): inactive

IC50 [4]: 70 nM
Compound: COC(=O)c1cc([C@H]2N[C@H](C(=O)N[C@@H](CCCCN)C(=O)O)Cc3c2[nH]c2ccccc32)ccc1O
inhibition (Platelet [1]): inactive | inhibition (Platelet [2]): inactive | Activity (Rattus norvegicus [3]): 19.19 mg | inhibition (Platelet [5]): inactive

IC50 [4]: 70 nM
Compound: COC(=O)c1cc([C@H]2N[C@H](C(=O)N[C@@H](CO)C(=O)O)Cc3c2[nH]c2ccccc32)ccc1O
inhibition (Platelet [1]): inactive | inhibition (Platelet [2]): inactive | Activity (Rattus norvegicus [3]): 19.19 mg | inhibition (Platelet [5]): inactive

IC50 [4]: 1750 nM
Compound: COC(=O)c1cc([C@H]2N[C@H](C(=O)N[C@@H](CC(C)C)C(=O)O)Cc3c2[nH]c2ccccc32)ccc1O
inhibition (Platelet [1]): inactive | inhibition (Platelet [2]): inactive | Activity (Rattus norvegicus [3]): 23.69 mg | inhibition (Platelet [5]): inactive

IC50 [4]: 1750 nM
Compound: COC(=O)c1cc([C@H]2N[C@H](C(=O)N[C@@H](CCC(=O)O)C(=O)O)Cc3c2[nH]c2ccccc32)ccc1O
inhibition (Platelet [1]): inactive | inhibition (Platelet [2]): inactive | Activity (Rattus norvegicus [3]): 23.69 mg | inhibition (Platelet [5]): inactive

IC50 [4]: 1750 nM
Compound: COC(=O)c1cc([C@H]2N[C@H](C(=O)N[C@@H](CC(=O)O)C(=O)O)Cc3c2[nH]c2ccccc32)ccc1O
inhibition (Platelet [1]): inactive | inhibition (Platelet [2]): inactive | Activity (Rattus norvegicus [3]): 23.69 mg | inhibition (Platelet [5]): inactive
